Source: patent US20240401154A1, “SYNTHESIS AND PREPARATION OF ULTRA-LOW VISCOSITY AND HIGH MAGNETIC SUSCEPTIBILITY MAGNETIC IONIC LIQUIDS” (priority 2023, published 2024)

Assays:
Assay type in all cases: physicochemical
[1] = Viscosity, Brookfield DVI cone and plate viscometer; conditions: 21.7° C.; neat MIL dried 48 hours under vacuum
Method: A Brookfield DVI cone and plate viscometer equipped with a CPA-51Z cone spindle was employed to obtain viscosity measurements at […] using approximately 0.5 g of each MIL after extensive drying for 48 hours under vacuum. Viscosity measurements were conducted at 21.7° C. for 15 lanthanide and transition metal MILs examined in this study.
Viscosity measurements were conducted at 21.7° C. for 15 lanthanide and transition metal MILs examined in this study.

[2] = Thermal stability, MIL as GC stationary phase with FID; conditions: exponential increase in response beyond 2,000 pA
Method: (§1) The thermal stability of MILs was measured from 40 to 350° C. at a ramp rate of 5° C. min^−1 by performing thermogravimetric analysis (TGA) using a NETZSCH STA 449 F1 Jupiter thermal analyzer (Selb, Germany). To further investigate the thermal stability of MILs using a more sensitive technique, the solvents were employed as a gas chromatographic (GC) stationary phase and subjected to an oven temperature program from 40 to 200° C. at a ramp rate of 1° C. min^−1 and decomposition/degradation products detected using an ultra-sensitive flame ionization detector (FID), with all measurements being performed on an Agilent Technologies 7890B gas chromatograph (Santa Clara, CA, USA).
To further investigate the thermal stability of MILs using a more sensitive technique, the solvents were employed as a gas chromatographic (GC) stationary phase and subjected to an oven temperature program from 40 to 200° C. at a ramp rate of 1° C. min^−1 and decomposition/degradation products detected using an ultra-sensitive flame ionization detector (FID).

[3] = Effective magnetic moment from magnetic susceptibility balance (MSB); conditions: per formula unit
Method: Magnetic properties were analyzed using a magnetic susceptibility balance (MSB, Sherwood Scientific, Cambridge, UK) and a Quantum Design Superconducting Quantum Interference Device (SQUID) magnetometer (MPMS XL-7). The magnetic properties of transition metal MILs were further studied using a SQUID magnetometer to confirm their paramagnetic nature as well as if any magnetic transition occurs in the samples.
Magnetic susceptibility (XM) was calculated through Equation (1).
Effective magnetic moment (μeff) was calculated through Equation (2). In Equation (2), T represents the temperature at which the magnetic susceptibility measurements were conducted.
15 MILs incorporating rare-earth and transition metals were examined using a magnetic susceptibility balance (MSB).

[4] = Thermal stability by thermogravimetric analysis (TGA); conditions: TGA at 10% weight loss
Method: as §1
Volitization/degradation of MILs as a function of temperature were measured using thermogravimetric analysis. The thermal stability of magnetic ionic liquids was measured from 40 to 350° C. at a ramp rate of 5° C. min^−1 by performing thermogravimetric analysis (TGA) using a NETZSCH STA 449 F1 Jupiter thermal analyzer (Selb, Germany).
To investigate the ability of DGE-based MILs to withstand elevated temperatures without undergoing degradation/decomposition, their thermal stabilities were investigated using thermogravimetric analysis (TGA). FIG. 13 through FIG. 27 display thermograms for MILs 1 to 15. The thermogram results are summarized in greater detail in the following paragraphs.

[5] = Solubility of MILs in organic solvents and water
Description: The solubility of lanthanide and transition metal MILs was investigated in popular traditional organic solvents. […]
The solubility of lanthanide and transition metal MILs was investigated in popular traditional organic solvents.

[6] = acetone, chloroform, dichloromethane, acetonitrile, methanol, ethanol, diethyl ether, ethyl acetate, isopropanol at 20% (w/v)
[7] = hexane, heptane, benzene, toluene at 10% (w/v)
[8] = hexane, heptane, benzene, toluene at 20% (w/v)
[9] = twelve organic solvents (without acetonitrile) at 50% (w/v)

Row | SMILES | Viscosity (cP) [1] [cP] | Onset of MIL volatilization (° C.)^1 ([2]; listed as [Co(C8-DGE)6][Gd(hfacac)4]2) | Onset of MIL volatilization (° C.)^1 ([2]; listed as [Co(C8-DGE)6][Ho(hfacac)4]2) | μeff, effective magnetic moment [3] [μB] | Onset of MIL volatilization (° C.)^2 [4] [°C] | Solubility [5, 6] | Solubility ([5]; acetonitrile at 50% (w/v)) | Solubility [5, 7] | Solubility [5, 8] | Solubility [5, 9] | Solubility ([5]; water at 0.01% (w/v)) | Onset of MIL volatilization (° C.)^1 [2] [°C]
1 | CCCCCCOC(=O)COCC(=O)OCCCCCC.CCCCCCOC(=O)COCC(=O)OCCCCCC.CCCCCCOC(=O)COCC(=O)OCCCCCC.CCCCCCOC(=O)COCC(=O)OCCCCCC.CCCCCCOC(=O)COCC(=O)OCCCCCC.CCCCCCOC(=O)COCC(=O)OCCCCCC.O=C(C=C([O-])C(F)(F)F)C(F)(F)F.O=C(C=C([O-])C(F)(F)F)C(F)(F)F.O=C(C=C([O-])C(F)(F)F)C(F)(F)F.O=C(C=C([O-])C(F)(F)F)C(F)(F)F.O=C(C=C([O-])C(F)(F)F)C(F)(F)F.O=C(C=C([O-])C(F)(F)F)C(F)(F)F.[Co+2].[Co+2].[Co+2] [MIL 1] | 175.0 | – | – | – | – | – | – | – | – | – | – | –
2 | CCCCCCCCOC(=O)COCC(=O)OCCCCCCCC.CCCCCCCCOC(=O)COCC(=O)OCCCCCCCC.CCCCCCCCOC(=O)COCC(=O)OCCCCCCCC.CCCCCCCCOC(=O)COCC(=O)OCCCCCCCC.CCCCCCCCOC(=O)COCC(=O)OCCCCCCCC.CCCCCCCCOC(=O)COCC(=O)OCCCCCCCC.O=C(C=C([O-])C(F)(F)F)C(F)(F)F.O=C(C=C([O-])C(F)(F)F)C(F)(F)F.O=C(C=C([O-])C(F)(F)F)C(F)(F)F.O=C(C=C([O-])C(F)(F)F)C(F)(F)F.O=C(C=C([O-])C(F)(F)F)C(F)(F)F.O=C(C=C([O-])C(F)(F)F)C(F)(F)F.O=C(C=C([O-])C(F)(F)F)C(F)(F)F.O=C(C=C([O-])C(F)(F)F)C(F)(F)F.[Co+2].[Gd+3].[Gd+3] [MIL 14] | – | approximately 120 °C | – | – | – | – | – | – | – | – | – | –
3 | CCCCCCCCOC(=O)COCC(=O)OCCCCCCCC.CCCCCCCCOC(=O)COCC(=O)OCCCCCCCC.CCCCCCCCOC(=O)COCC(=O)OCCCCCCCC.CCCCCCCCOC(=O)COCC(=O)OCCCCCCCC.CCCCCCCCOC(=O)COCC(=O)OCCCCCCCC.CCCCCCCCOC(=O)COCC(=O)OCCCCCCCC.O=C(C=C([O-])C(F)(F)F)C(F)(F)F.O=C(C=C([O-])C(F)(F)F)C(F)(F)F.O=C(C=C([O-])C(F)(F)F)C(F)(F)F.O=C(C=C([O-])C(F)(F)F)C(F)(F)F.O=C(C=C([O-])C(F)(F)F)C(F)(F)F.O=C(C=C([O-])C(F)(F)F)C(F)(F)F.O=C(C=C([O-])C(F)(F)F)C(F)(F)F.O=C(C=C([O-])C(F)(F)F)C(F)(F)F.[Co+2].[Ho+3].[Ho+3] [MIL 15] | – | – | approximately 120 °C | – | – | – | – | – | – | – | – | –
4 | CCCCCCOC(=O)COCC(=O)OCCCCCC.CCCCCCOC(=O)COCC(=O)OCCCCCC.CCCCCCOC(=O)COCC(=O)OCCCCCC.CCCCCCOC(=O)COCC(=O)OCCCCCC.CCCCCCOC(=O)COCC(=O)OCCCCCC.CCCCCCOC(=O)COCC(=O)OCCCCCC.O=C(C=C([O-])C(F)(F)F)C(F)(F)F.O=C(C=C([O-])C(F)(F)F)C(F)(F)F.O=C(C=C([O-])C(F)(F)F)C(F)(F)F.O=C(C=C([O-])C(F)(F)F)C(F)(F)F.O=C(C=C([O-])C(F)(F)F)C(F)(F)F.O=C(C=C([O-])C(F)(F)F)C(F)(F)F.[Ni+2].[Ni+2].[Ni+2] [compound 2] | 248.6 | – | – | 5.48 | 257.0 | S^b (soluble in acetone, chloroform, dichloromethane, acetonitrile, methanol, ethanol, diethyl ether, ethyl acetate, and isopropanol at 20% (w/v).) | S^e (insoluble in acetonitrile at 50% (w/v).) | S^a (soluble in hexane, heptane, benzene, and toluene at 10% (w/v).) | S^c (soluble in hexane, heptane, benzene, and toluene at 20% (w/v).) | S^d (soluble in acetone, chloroform, dichloromethane, methanol, ethanol, diethyl ether, ethyl acetate, isopropanol hexane, heptane, benzene, and toluene at 50% (w/v).) | S^f (insoluble in water at 0.01% (w/v).) | 166
5 | CCCCCCOC(=O)COCC(=O)OCCCCCC.CCCCCCOC(=O)COCC(=O)OCCCCCC.CCCCCCOC(=O)COCC(=O)OCCCCCC.CCCCCCOC(=O)COCC(=O)OCCCCCC.CCCCCCOC(=O)COCC(=O)OCCCCCC.CCCCCCOC(=O)COCC(=O)OCCCCCC.O=C(C=C([O-])C(F)(F)F)C(F)(F)F.O=C(C=C([O-])C(F)(F)F)C(F)(F)F.O=C(C=C([O-])C(F)(F)F)C(F)(F)F.O=C(C=C([O-])C(F)(F)F)C(F)(F)F.O=C(C=C([O-])C(F)(F)F)C(F)(F)F.O=C(C=C([O-])C(F)(F)F)C(F)(F)F.[Mn+2].[Mn+2].[Mn+2] [compound 3] | 63.2 | – | – | 10.42 | 256.8 | S^b (soluble in acetone, chloroform, dichloromethane, acetonitrile, methanol, ethanol, diethyl ether, ethyl acetate, and isopropanol at 20% (w/v).) | S^e (insoluble in acetonitrile at 50% (w/v).) | S^a (soluble in hexane, heptane, benzene, and toluene at 10% (w/v).) | S^c (soluble in hexane, heptane, benzene, and toluene at 20% (w/v).) | S^d (soluble in acetone, chloroform, dichloromethane, methanol, ethanol, diethyl ether, ethyl acetate, isopropanol hexane, heptane, benzene, and toluene at 50% (w/v).) | S^f (insoluble in water at 0.01% (w/v).) | 168
6 | CCCCCCCCOC(=O)COCC(=O)OCCCCCCCC.CCCCCCCCOC(=O)COCC(=O)OCCCCCCCC.CCCCCCCCOC(=O)COCC(=O)OCCCCCCCC.CCCCCCCCOC(=O)COCC(=O)OCCCCCCCC.CCCCCCCCOC(=O)COCC(=O)OCCCCCCCC.CCCCCCCCOC(=O)COCC(=O)OCCCCCCCC.O=C(C=C([O-])C(F)(F)F)C(F)(F)F.O=C(C=C([O-])C(F)(F)F)C(F)(F)F.O=C(C=C([O-])C(F)(F)F)C(F)(F)F.O=C(C=C([O-])C(F)(F)F)C(F)(F)F.O=C(C=C([O-])C(F)(F)F)C(F)(F)F.O=C(C=C([O-])C(F)(F)F)C(F)(F)F.[Co+2].[Co+2].[Co+2] [compound 4] | 31.6 | – | – | 8.57 | 262.9 | S^b (soluble in acetone, chloroform, dichloromethane, acetonitrile, methanol, ethanol, diethyl ether, ethyl acetate, and isopropanol at 20% (w/v).) | – | S^a (soluble in hexane, heptane, benzene, and toluene at 10% (w/v).) | S^c (soluble in hexane, heptane, benzene, and toluene at 20% (w/v).) | S^d (soluble in acetone, chloroform, dichloromethane, methanol, ethanol, diethyl ether, ethyl acetate, isopropanol hexane, heptane, benzene, and toluene at 50% (w/v).) | S^f (insoluble in water at 0.01% (w/v).) | 185
7 | CCCCCCCCOC(=O)COCC(=O)OCCCCCCCC.CCCCCCCCOC(=O)COCC(=O)OCCCCCCCC.CCCCCCCCOC(=O)COCC(=O)OCCCCCCCC.CCCCCCCCOC(=O)COCC(=O)OCCCCCCCC.CCCCCCCCOC(=O)COCC(=O)OCCCCCCCC.CCCCCCCCOC(=O)COCC(=O)OCCCCCCCC.O=C(C=C([O-])C(F)(F)F)C(F)(F)F.O=C(C=C([O-])C(F)(F)F)C(F)(F)F.O=C(C=C([O-])C(F)(F)F)C(F)(F)F.O=C(C=C([O-])C(F)(F)F)C(F)(F)F.O=C(C=C([O-])C(F)(F)F)C(F)(F)F.O=C(C=C([O-])C(F)(F)F)C(F)(F)F.[Ni+2].[Ni+2].[Ni+2] [compound 5] | 119.1 | – | – | 5.33 | 264.4 | S^b (soluble in acetone, chloroform, dichloromethane, acetonitrile, methanol, ethanol, diethyl ether, ethyl acetate, and isopropanol at 20% (w/v).) | – | S^a (soluble in hexane, heptane, benzene, and toluene at 10% (w/v).) | S^c (soluble in hexane, heptane, benzene, and toluene at 20% (w/v).) | S^d (soluble in acetone, chloroform, dichloromethane, methanol, ethanol, diethyl ether, ethyl acetate, isopropanol hexane, heptane, benzene, and toluene at 50% (w/v).) | S^f (insoluble in water at 0.01% (w/v).) | 190
